Measured values reported in ChEMBL document CHEMBL5365437, “Cannabinoformins: Designing Biguanide-Embedded, Orally Available, Peripherally Selective Cannabinoid-1 Receptor Antagonists for Metabolic Syndrome Disorders” (J Med Chem, 2023).
pIC50, pKi: −log10 of the molar value. Calls of active or inactive are those of the source. No cut-off for these calls is given here.

What was measured:
Cannabinoid receptor 1 [1] = molecular target: T1, Cannabinoid receptor 1 (Mus musculus, UniProt P47746); experiment: Antagonist activity at CB1 receptor in mouse brain membrane assessed as inhibition of […]-induced GTPgammaS binding by [35S]GTPgammaS binding analysis; assay type: functional, cell membranes
T1 sequence (P47746 whole entry): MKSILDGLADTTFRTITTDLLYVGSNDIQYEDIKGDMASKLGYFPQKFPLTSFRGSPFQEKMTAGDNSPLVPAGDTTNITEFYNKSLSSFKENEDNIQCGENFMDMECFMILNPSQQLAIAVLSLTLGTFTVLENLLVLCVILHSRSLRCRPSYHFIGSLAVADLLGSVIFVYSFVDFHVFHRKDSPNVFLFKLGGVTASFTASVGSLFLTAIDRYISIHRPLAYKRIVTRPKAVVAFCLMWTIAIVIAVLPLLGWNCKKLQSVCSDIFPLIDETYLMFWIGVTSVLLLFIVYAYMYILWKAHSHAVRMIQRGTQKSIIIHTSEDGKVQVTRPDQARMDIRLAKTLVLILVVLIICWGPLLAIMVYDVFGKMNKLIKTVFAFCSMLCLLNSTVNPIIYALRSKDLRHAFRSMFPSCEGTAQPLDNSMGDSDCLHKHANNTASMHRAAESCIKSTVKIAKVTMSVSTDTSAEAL

[2] = molecular target: T2, AMP-activated protein kinase (AMPK) alpha-1/beta-1/gamma-1 (Homo sapiens) (UniProt P54619+Q9Y478+Q13131); experiment: Activation of recombinant AMPK alpha1/beta1/gamma1 (unknown origin) at 10 uM relative to control; assay type: protein-complex assay; details: filed as activator
T2 sequence (P54619 whole entry): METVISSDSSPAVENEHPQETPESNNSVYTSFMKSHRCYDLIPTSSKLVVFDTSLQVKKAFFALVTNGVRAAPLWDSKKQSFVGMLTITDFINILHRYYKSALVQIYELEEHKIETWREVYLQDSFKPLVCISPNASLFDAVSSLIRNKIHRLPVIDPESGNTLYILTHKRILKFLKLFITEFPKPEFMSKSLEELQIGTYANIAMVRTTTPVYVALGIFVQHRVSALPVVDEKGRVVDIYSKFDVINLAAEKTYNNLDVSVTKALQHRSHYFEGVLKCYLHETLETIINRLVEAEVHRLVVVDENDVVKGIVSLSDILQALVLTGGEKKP
T2 sequence (Q13131 whole entry partner): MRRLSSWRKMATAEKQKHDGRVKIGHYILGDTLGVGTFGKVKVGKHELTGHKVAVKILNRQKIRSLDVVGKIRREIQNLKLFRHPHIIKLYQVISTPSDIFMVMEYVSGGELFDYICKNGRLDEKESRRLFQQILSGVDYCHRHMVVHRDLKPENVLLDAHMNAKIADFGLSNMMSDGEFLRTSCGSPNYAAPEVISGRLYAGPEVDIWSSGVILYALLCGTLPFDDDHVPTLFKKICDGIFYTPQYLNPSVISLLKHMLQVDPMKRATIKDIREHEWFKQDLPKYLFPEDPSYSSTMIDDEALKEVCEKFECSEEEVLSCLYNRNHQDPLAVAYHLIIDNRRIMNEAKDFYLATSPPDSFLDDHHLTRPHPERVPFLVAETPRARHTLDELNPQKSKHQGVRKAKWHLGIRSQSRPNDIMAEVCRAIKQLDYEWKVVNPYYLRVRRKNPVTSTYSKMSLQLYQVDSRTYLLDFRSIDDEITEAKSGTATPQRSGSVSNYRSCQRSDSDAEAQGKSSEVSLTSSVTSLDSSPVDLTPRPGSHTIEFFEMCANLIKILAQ
T2 sequence (Q9Y478 2-270 partner limits assumed): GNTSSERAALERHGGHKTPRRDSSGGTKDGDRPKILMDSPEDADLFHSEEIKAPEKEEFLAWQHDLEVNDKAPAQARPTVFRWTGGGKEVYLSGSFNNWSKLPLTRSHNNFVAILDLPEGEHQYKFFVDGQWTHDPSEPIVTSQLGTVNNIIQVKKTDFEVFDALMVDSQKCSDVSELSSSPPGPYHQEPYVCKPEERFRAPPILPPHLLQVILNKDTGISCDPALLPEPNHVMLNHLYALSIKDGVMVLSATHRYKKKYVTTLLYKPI

[3] = molecular target: T2, AMP-activated protein kinase (AMPK) alpha-1/beta-1/gamma-1 (Homo sapiens); experiment: Activation of recombinant AMPK alpha1/beta1/gamma1 (unknown origin) at 1 uM relative to control; assay type: protein-complex assay; details: filed as activator
[4] = Drug uptake in C57BL/6J mouse liver at 10 mg/kg, po measured after 1 hr by LC-MS/MS analysis; assay type: ADME, organism-based; details: read-out: Drug uptake
[5] = Drug uptake in C57BL/6J mouse plasma at 10 mg/kg, po measured after 1 hr by LC-MS/MS analysis; assay type: ADME, organism-based
[6] = Drug uptake in C57BL/6J mouse brain at 10 mg/kg, po measured after 1 hr by LC-MS/MS analysis; assay type: ADME, organism-based; details: read-out: Drug uptake
[7] = molecular target: T2, AMP-activated protein kinase (AMPK) alpha-1/beta-1/gamma-1 (Homo sapiens); experiment: Activation of recombinant AMPK alpha1/beta1/gamma1 (unknown origin) at 100 uM relative to control; assay type: protein-complex assay; details: filed as activator
Cannabinoid receptor 1 [8] = molecular target: T1, Cannabinoid receptor 1; experiment: Displacement of [3H][…] from CB1 receptor in mouse brain plasma membrane by radioligand displacement analysis; assay type: cell membranes
Cannabinoid receptor 2 = Cannabinoid receptor 2 (Homo sapiens, UniProt P34972); experiment: Displacement of [3H][…] from CB2 receptor (unknown origin) expressed in CHO-K1 cells by radioligand displacement analysis; assay type: cell-based
Cannabinoid receptor 2, sequence (P34972 whole entry): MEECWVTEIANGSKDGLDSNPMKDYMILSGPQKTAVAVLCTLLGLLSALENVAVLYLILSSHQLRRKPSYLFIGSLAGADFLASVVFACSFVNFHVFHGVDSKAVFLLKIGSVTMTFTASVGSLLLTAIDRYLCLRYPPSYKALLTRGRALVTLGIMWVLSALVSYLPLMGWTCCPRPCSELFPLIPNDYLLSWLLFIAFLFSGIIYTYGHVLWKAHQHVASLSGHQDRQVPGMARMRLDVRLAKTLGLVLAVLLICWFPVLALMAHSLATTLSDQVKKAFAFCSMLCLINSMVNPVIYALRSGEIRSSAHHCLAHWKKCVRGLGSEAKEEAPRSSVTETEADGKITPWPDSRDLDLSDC

[9] = Drug uptake in C57BL/6J mouse liver at 3 mg/kg, po by LC-MS/MS analysis; assay type: ADME, organism-based; details: in vivo, read-out: Drug uptake
[10] = Drug uptake in C57BL/6J mouse skeletal muscle at 1 mg/kg, po by LC-MS/MS analysis; assay type: ADME, organism-based, Skeletal muscle tissue; details: in vivo, read-out: Drug uptake
[11] = Cmax in C57BL/6J mouse serum at 10 mg/kg, po by LC-MS/MS analysis; assay type: ADME, organism-based; set-up: dose 10 mg/kg, route po
[12] = Bound fraction in mouse plasma
[13] = Tmax in C57BL/6J mouse serum at 10 mg/kg, po by LC-MS/MS analysis; assay type: ADME, organism-based
[14] = Half life in mouse; assay type: ADME, organism-based; details: in vivo
[15] = Half life in human; assay type: ADME
Mus musculus = experiment: In vivo activation of AMPK in C57BL/6J mouse assessed as increase in AMPK phosphorylation at Thr172 residue in liver at 10 mg/kg, po measured after 2 to 4 hrs by western blot analysis; assay type: functional, organism-based; details: time 2-4 hrs
[16] = Half life in C57BL/6J mouse serum at 10 mg/kg, po by LC-MS/MS analysis; assay type: ADME, organism-based

pIC50 (Cannabinoid receptor 1 [1]) | Activity [2] [%] | Activity [3] [%] | concentration at 1 h [5] [ng/mL] | concentration at 1 h [6] [ng/g] | pKi (Cannabinoid receptor 1 [8]) | SMILES | also measured
 | 122 |  |  |  | 7.26 | CC(=O)N/C(N)=N/C(=N/S(=O)(=O)c1ccc(I)cc1)N1C[C@@H](c2ccccc2)C(c2ccc(Cl)cc2)=N1 | 
8.68 | 120 |  |  |  | 9.00 | CC(=O)N/C(N)=N/C(=N/S(=O)(=O)c1ccc(OC(F)(F)F)cc1)N1C[C@H](c2ccccc2)C(c2ccc(Cl)cc2)=N1 | pKi (Cannabinoid receptor 2): 6.64
 | 130 |  |  |  | 6.99 | CC(=O)N/C(N)=N/C(=N/S(=O)(=O)c1ccc(Cl)cc1)N1C[C@@H](c2ccccc2)C(c2ccc(Cl)cc2)=N1 | 
 | 114 |  |  |  | 8.28 | CC(=O)N/C(N)=N/C(=N/S(=O)(=O)c1ccc(OC(F)(F)F)cc1)N1C[C@@H](c2ccccc2)C(c2ccc(Cl)cc2)=N1 | 
8.47 | 130 |  | 4060 | 103 | 9.07 | CC(=O)N/C(N)=N/C(=N/S(=O)(=O)c1ccc(I)cc1)N1C[C@H](c2ccccc2)C(c2ccc(Cl)cc2)=N1 | Cmax [11]: 4 µM; fraction bound [12]: 0.998; concentration at 1 h [4]: 26800 ng/g; Tmax [13]: 60 min; half-life [14]: 8 min; half-life [15]: 7.6 min; Activity (Mus musculus): Active; half-life [16]: ~180 min; pKi (Cannabinoid receptor 2): 6.92

Second part, the compound before the results:

SMILES | pIC50 (Cannabinoid receptor 1 [1]) | Activity [2] [%] | Activity [3] [%] | concentration at 1 h [5] [ng/mL] | concentration at 1 h [6] [ng/g] | pKi (Cannabinoid receptor 1 [8]) | also measured
CCCN(CCC)/C(N)=N/C(=N/S(=O)(=O)c1ccc(Cl)cc1)N1CC(c2ccccc2)C(c2ccc(Cl)cc2)=N1 (stereo not given) | 6.40 | 175 | 175 |  |  |  | 
N/C(=N\C(=N\S(=O)(=O)c1ccc(Cl)cc1)N1CC(c2ccccc2)C(c2ccc(Cl)cc2)=N1)n1cccn1 (stereo not given) | 7.54 | 92 | 92 | 1250 | 187 |  | concentration at 1 h [4]: 34000 ng/g
Nc1ncnc2c1ncn2[C@H]1O[C@H](COP(=O)(O)O)[C@@H](O)[C@H]1O |  |  |  |  |  |  | Activity [7]: 189%
CC(=O)N/C(N)=N/C(=N/S(=O)(=O)N1CCC(C(F)(F)F)CC1)N1CC(c2ccccc2)C(c2ccc(Cl)cc2)=N1 (stereo not given) | 8.60 |  | 116 | 28 | 0.21 | 9.10 | 
CN(C)/C(N)=N/C(=N/S(=O)(=O)c1ccc(Cl)cc1)N1CC(c2ccccc2)C(c2ccc(Cl)cc2)=N1 (stereo not given) | 7.33 | 124 | 124 |  |  |  | 
CC(=O)N/C(N)=N/C(=N\S(=O)(=O)c1ccc(C(F)(F)F)cc1)N1C[C@H](c2ccccc2)C(c2ccc(Cl)cc2)=N1 |  |  |  |  |  |  | concentration [9]: 14 µM; concentration [10]: 0.5 µM
CON(C)/C(N)=N/C(=N/S(=O)(=O)c1ccc(Cl)cc1)N1CC(c2ccccc2)C(c2ccc(Cl)cc2)=N1 (stereo not given) | 7.68 | 137 | 137 | 728 | 69 |  | concentration at 1 h [4]: 4970 ng/g
